Data: ChEMBL document CHEMBL1201862, “PubChem BioAssay data set” (2004)
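In this assay, cells in 96-well plates receive the compound at five concentrations for 48 hours. Endpoints are linearly interpolated between the surrounding concentrations. GI50: concentration for 50% inhibition of growth.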 The source made the active and inactive calls. No stated cut-off is given here; in the data, active = GI50 up to about 1.1 µM and inactive = higher.

Experiments:
Test in all cases: NCI anticancer screen, dose series, 48 h
[1] = system: 786-0
[2] = system: SNB-19
[3] = system: NCI-H23
[4] = system: UACC-62
[5] = system: SK-MEL-5
[6] = system: SF-268
[7] = system: CAKI-1
[8] = system: RPMI-8226
[9] = system: SF-539
[10] = system: SF-295
[11] = system: KM12
[12] = system: M14
[13] = system: OVCAR-4
[14] = system: HCT-116
[15] = system: COLO 205
[16] = system: A549
[17] = system: OVCAR-3
[18] = system: UO-31
[19] = system: ACHN
[20] = system: HL-60

Row | Compound | GI50 [1] | GI50 [2] | GI50 [3] | GI50 [4] | GI50 [5] | GI50 [6] | GI50 [7] | GI50 [8] | GI50 [9] | GI50 [10] | GI50 [11] | GI50 [12] | GI50 [13] | GI50 [14] | GI50 [15] | GI50 [16] | GI50 [17] | GI50 [18] | GI50 [19] | GI50 [20]
1 | CC(C)OCC1CC(CC(=O)Nc2nncs2)C(=O)O1 (stereo not drawn) | > 100 µM (inactive) | > 100 µM (inactive) | > 100 µM (inactive) | > 100 µM (inactive) | > 100 µM (inactive) | > 100 µM (inactive) | > 100 µM (inactive) | > 100 µM (inactive) | > 100 µM (inactive) | > 100 µM (inactive) | > 100 µM (inactive) | > 100 µM (inactive) | > 100 µM (inactive) | > 100 µM (inactive) | > 100 µM (inactive) | > 100 µM (inactive) | > 100 µM (inactive) | > 100 µM (inactive) | > 100 µM (inactive) | 
2 | C=CCSc1nc2ccccc2c(=O)n1Cc1ccco1 | > 100 µM (inactive) | > 100 µM (inactive) | 94.8 µM (inactive) | > 100 µM (inactive) | 45 µM (inactive) | > 100 µM (inactive) | > 100 µM (inactive) | 37.4 µM (inactive) | > 100 µM (inactive) | > 100 µM (inactive) | > 100 µM (inactive) | > 100 µM (inactive) | 80.5 µM (inactive) | 82 µM (inactive) | > 100 µM (inactive) | 78.9 µM (inactive) | 68.7 µM (inactive) | 91.6 µM (inactive) | > 100 µM (inactive) | 
3 | Cc1c(CNc2ccc(C(=O)NC(CC(=O)O)C(=O)O)cc2)ccc2nc(N)nc(N)c12 (stereo not drawn) | < 0.164 µM (active) |  | < 0.018 µM (active) | < 0.01 µM (active) | 0.021 µM (active) | < 0.01 µM (active) |  | < 0.0182 µM (active) | 0.0127 µM (active) | < 0.0106 µM (active) | 0.0743 µM (active) | < 0.215 µM (active) | > 100 µM (inactive) | < 0.01 µM (active) | > 9.42 µM (inactive) | < 0.01 µM (active) |  | < 0.018 µM (active) | < 0.01 µM (active) | < 0.01 µM (active)
4 | Cc1cc2c(C)nn(Cc3ccccc3)c2c(C(N)=O)c1C | > 100 µM (inactive) | > 100 µM (inactive) | > 100 µM (inactive) | > 100 µM (inactive) | > 100 µM (inactive) | > 100 µM (inactive) |  | > 100 µM (inactive) | > 100 µM (inactive) | > 100 µM (inactive) | > 100 µM (inactive) | > 100 µM (inactive) | > 100 µM (inactive) | > 100 µM (inactive) | > 100 µM (inactive) | > 100 µM (inactive) | > 100 µM (inactive) | 67.9 µM (inactive) | > 100 µM (inactive) | 
